Source: patent US8697911B2, “Rho kinase inhibitors” (Boehringer Ingelheim International GmbH, priority 2010, dated 2014)

Tests used:
ROCKII (1-543) [1] = target: T1, ROCKII (1-543) (Homo sapiens (Human), UniProt O75116); assay: Luciferin-Luciferase Assay (Assay 1); type: biochemical; conditions: luciferin-luciferase residual ATP; 750 nM ATP, 7.5 nM kinase
Method: 1. Luciferin-Luciferase Assay
The activity of ROCKII (1-543) kinase is measured utilizing Cambrex PKLight ATP Detection Reagent, a homogeneous assay technology using luciferin-luciferase to quantify residual ATP. The assay is performed in 384-well low-volume, white, non-binding surface microtiter plates (Corning). The assay buffer is 25 mM HEPES, pH 7.5, 10 mM MgCl2, 50 mM KCl, 0.2% BSA, 0.01% CHAPS, 100 μM Na3VO4 and 0.5 mM DTT. Test compounds, dissolved in neat DMSO at 500 μg/mL, are serially diluted for dose response for a final starting concentration of 3 μg/mL in 1% DMSO of assay buffer. ROCKII (1-543) (62,408 Da) is diluted in assay buffer to a final concentration of 7.5 nM in a total volume of 15 μL. Positive controls are reaction mixtures containing no test compound; negative controls (blanks) are reaction mixtures containing no kinase. After 15 minutes of pre-incubation of the test compounds with the kinase, a mixture of ATP and peptide substrate ([…]) in assay buffer is added to each well for a final concentration of 750 nM ATP and 500 nM peptide, respectively. After 90 minutes of incubation of the kinase reaction at 28° C. temperature, 10 μL of PKLight ATP Detection Reagent (warmed to room temperature previously) is added to each well. The assay plate is incubated at room temperature for additional 15 minutes and then read on an Analyst in luminescence mode. Dose-response experiments for each of the test compounds are conducted in quadruplet. IC50 values of test compounds represent 50% response of the positive control from the dose-response curve.
Target sequence in this assay (O75116 1-543): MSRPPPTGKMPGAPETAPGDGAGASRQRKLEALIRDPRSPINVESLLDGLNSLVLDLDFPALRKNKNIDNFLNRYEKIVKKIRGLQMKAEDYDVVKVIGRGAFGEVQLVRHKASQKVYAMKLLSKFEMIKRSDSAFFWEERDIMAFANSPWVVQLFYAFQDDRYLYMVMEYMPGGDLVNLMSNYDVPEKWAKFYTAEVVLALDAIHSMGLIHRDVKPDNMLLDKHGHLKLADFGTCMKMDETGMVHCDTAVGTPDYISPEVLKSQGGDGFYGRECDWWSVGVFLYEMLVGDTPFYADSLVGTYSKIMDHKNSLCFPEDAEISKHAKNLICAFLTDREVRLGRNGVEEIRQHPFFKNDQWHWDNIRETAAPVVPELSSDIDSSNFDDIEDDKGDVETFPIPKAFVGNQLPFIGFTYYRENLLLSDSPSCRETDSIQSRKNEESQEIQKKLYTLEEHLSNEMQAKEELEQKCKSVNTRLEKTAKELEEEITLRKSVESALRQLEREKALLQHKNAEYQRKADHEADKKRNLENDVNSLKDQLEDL

ROCKII (1-543) [2] = target: T1, ROCKII (1-543); assay: IMAP Assay (Assay 2); type: biochemical; conditions: IMAP fluorescence polarization; 100 μM ATP, 1 nM kinase
Method: This assay is performed using FAM S6 substrate peptide (Catalogue #R7184) and IMAP FP Screening Express Kit detection reagents from Molecular Devices (Sunnyvale, Calif.) in IMAP kinase reaction buffer (Tris-HCl, pH 7.2, 10 mM MgCl2, 0.05% NaN3, 0.1% phosphate-free BSA) containing 1 mM DTT. Test compounds dissolved in neat DMSO at 0.3 mg/mL are serially diluted 1 to 3 for concentration response in 100% DMSO. The DMSO serial dilutions are further diluted 33.33-fold in kinase reaction buffer, and 10 μL of this buffer dilution is transferred to Corning black 96-well half area NBS plates for a final top concentration of 3 μg/mL in 1% DMSO. 10 μL aliquot of 3 nM ROCKII (1-543) diluted in kinase reaction buffer is added to each assay well for a final concentration of 1 nM kinase. 10 μL of a mixture of 600 nM FAM S6 peptide and 300 μM ATP diluted in kinase reaction buffer is added to each well for a final concentration of 200 nM peptide and 100 μM ATP. The kinase reaction mixture is incubated for 60 minutes at room temperature. Positive controls are reaction mixtures containing no test compound and negative controls (blanks) are reaction mixtures containing no kinase. The kinase reaction is stopped by addition of 60 μL IMAP progressive binding reagent (Catalog #R7284) diluted 400-fold in 1× Binding buffer A. After 30 min of incubation at room temperature, the plates are read for fluorescence polarization on Analyst Plate Reader using Ex 485 nm, Em 530 nm, and FL 505 dichroic minor. The mP signals are converted to percent of control (POC) values using the formula: POC=100*(Signal−BCTRL)÷(PCTRL−BCTRL)
Where Signal is the test well signal, BCTRL is the average of background (negative control) well signals on the plate and PCTRL is the average of positive control well signals on the plate. For the concentration-responsive compounds, POC as a function of test compound concentration is fitted to a 4-parameter logistic equation of the form: Y=A+(B−A)/[1+(x/C)D]
Where A, B, C, and D are fitted parameters (parameter B is fixed at zero POC), and x and y are the independent and dependent variables, respectively. The IC50 is determined as the inflection point parameter, C.
Target sequence in this assay (O75116 1-543, species assumed): as the sequence (O75116 1-543) above

Row | SMILES | IC50 (ROCKII (1-543) [1]) [nM] | IC50 (ROCKII (1-543) [2]) [nM]
1 | Cc1c(C(=O)NCc2cccc(C(=O)Nc3nc4c(s3)C[C@@H](N3CCOCC3)CC4)c2)nnn1-c1nonc1N [compound 152] | 1.9 | 0.57
2 | CN1CCc2nc(NC(=O)c3cccc(CNC(=O)c4cccc(-c5cccnc5)c4)c3)sc2C1 [compound 4] | 22.5 | 73
3 | CN1CCc2ccc(NC(=O)c3cccc(CNC(=O)c4cc(-c5ccncc5)[nH]n4)c3)cc2C1 [compound 119] | 1.3 | 0.22
4 | N[C@@H]1CCc2nc(NC(=O)c3cccc(CNC(=O)c4cccc(-c5cn[nH]c5)c4)c3)sc2C1 [compound 28] | 1.1 | 0.45
5 | CN1CCc2ccc(NC(=O)c3cccc(CNC(=O)c4ccc(C5=CSNN5)cc4)c3)cc2C1 [compound 31] | 4.6 | 4.6
6 | Cc1nccn1-c1ccc(C(=O)NCc2cccc(C(=O)Nc3ccc4c(c3)CN(C)CC4)c2)cc1 [compound 200] | 3 | 1.6
7 | CN1CCc2nc(NC(=O)c3cccc(CNC(=O)c4cc(-c5ccncc5)n[nH]4)c3)sc2C1 [compound 74] | 1.3 | 0.23
8 | CN1CCc2nc(NC(=O)c3cccc(CNC(=O)c4csc(-c5ccncc5)n4)c3)sc2C1 [compound 22] | 5.8 | 37
9 | CN1CCc2ccc(NC(=O)c3cccc(CNC(=O)c4cccc(-c5cnco5)c4)c3)cc2C1 [compound 190] | 6.5 | 56
10 | CN1CCc2ccc(NC(=O)c3cccc(CNC(=O)c4cnc(-c5cccnc5)s4)c3)cc2C1 [compound 194] | 4.8 | 30
11 | CN1CCc2nc(NC(=O)c3cccc(CNC(=O)N4CCc5c(C#N)cccc54)c3)sc2C1 [compound 90] | 3.1 | 17
12 | CN1CCc2ccc(NC(=O)c3cccc(CNC(=O)c4ccc(-n5ccnc5)cc4)c3)cc2C1 [compound 39] | 4.9 | 9.9
13 | Cc1c(C(=O)NCc2cccc(C(=O)Nc3ccc4c(c3)CN(C)CC4)c2)nnn1-c1nonc1N [compound 125] | 5.9 | 26
14 | CN1CCc2ccc(NC(=O)c3cccc(CNC(=O)c4nnn(-c5nonc5N)c4-c4ccccc4)c3)cc2C1 [compound 123] | 1.7 | 3.9
15 | CN1CCc2ccc(NC(=O)c3cccc(CNC(=O)c4cc5cc(C#N)ccc5[nH]4)c3)cc2C1 [compound 80] | 1.5 | 0.58
16 | CN1CCc2ccc(NC(=O)c3cccc(CNC(=O)c4cc5ccc(C(N)=O)cc5[nH]4)c3)cc2C1 [compound 54] | 1.3 | 0.45
17 | CN1CCc2ccc(NC(=O)c3cccc(CNC(=O)c4cc5ccc(C#N)cc5[nH]4)c3)cc2C1 [compound 52] | 2.2 | 8.1
18 | CN1CCc2ccc(NC(=O)c3cccc(CNC(=O)c4cc5ccc(C#N)cc5n4C)c3)cc2C1 [compound 92] | 4.1 | 17
19 | Cc1cc(-c2ncc(C(=O)NCc3cccc(C(=O)Nc4nc5c(s4)CN(C)CC5)c3)s2)ccn1 [compound 154] | 9.5 | 39
20 | Cc1cc(-c2ccc(C(=O)NCc3cccc(C(=O)Nc4nc5c(s4)CN(C)CC5)c3)cc2)ccn1 [compound 144, 3-[4-(2-picoline-4-yl)-benzamidomethyl-N-(5-methyl-4,5,6,7-tetrahydro-thiazolo[5,4-c]pyridin-2-yl)-benzamide]] | 2.6 | 4.35
21 | CN1CCc2nc(NC(=O)c3cccc(CNC(=O)c4nnn(-c5nonc5N)c4-c4ccccc4)c3)sc2C1 [compound 46] | 1.8 | 4.9
22 | Cc1nnnn1-c1ccc(C(=O)NCc2cccc(C(=O)Nc3nc4c(s3)CN(C)CC4)c2)cc1 [compound 8] | 6 | 9.8
23 | CN1CCc2nc(NC(=O)c3cccc(CNC(=O)c4cn5ccc(C#N)cc5n4)c3)sc2C1 [compound 66] | 2.5 | 12
24 | Cc1nc(-c2ccncc2)sc1C(=O)NCc1cccc(C(=O)Nc2ccc3c(c2)CN(C)CC3)c1 [compound 95] | 1.4 | 1.25
25 | Cc1nnnn1-c1ccc(C(=O)NCc2cccc(C(=O)Nc3nc4c(s3)C[C@@H](N)CC4)c2)cc1 [compound 38] | 1.1 | 0.67
26 | Cc1nnnn1-c1ccc(C(=O)NCc2cccc(C(=O)Nc3nc4c(s3)C[C@H](N)CC4)c2)cc1 [compound 36] | 1.4 | 3

The next lines start with the values.

Row | IC50 (ROCKII (1-543) [1]) [nM] | IC50 (ROCKII (1-543) [2]) [nM] | SMILES
27 | 5.7 | 48 | CN1CCc2ccc(NC(=O)c3cccc(CNC(=O)c4ccc(-n5cncn5)cc4)c3)cc2C1 [compound 178, 4-[1,2,4]triazol-1-yl-benzoic acid 3-(2-methyl-1,2,3,4-tetrahydro-isoquinolin-7-ylcarbamoyl)-benzylamide]
28 | 2.6 | 2 | CN1CCc2ccc(NC(=O)c3cccc(CNC(=O)c4ccc5cc(O)ccc5c4)c3)cc2C1 [compound 29]
29 | 8.1 | 47 | CN1CCc2ccc(NC(=O)c3cccc(CNC(=O)c4ccc(-c5cc[nH]n5)cc4)c3)cc2C1 [compound 155]
30 | 2.1 | 1.2 | Cc1sc(-c2ccncc2)nc1C(=O)NCc1cccc(C(=O)Nc2nc3c(s2)CN(C)CC3)c1 [compound 58]
31 | 1.7 | 2.6 | CN(C)[C@H]1CCc2nc(NC(=O)c3cccc(CNC(=O)c4cn5cc(C#N)ccc5n4)c3)sc2C1 [compound 100]
32 | 9.8 | 45 | CN1CCc2ccc(NC(=O)c3cccc(CNC(=O)c4csc(-c5cccnc5)n4)c3)cc2C1 [compound 27]
33 | 4.8 | 7.9 | CN1CCc2nc(NC(=O)c3cccc(CNC(=O)c4csc(-c5cccnc5)n4)c3)sc2C1 [compound 14]
34 | 1.2 | 1.4 | Cc1nc(-c2ccncc2)sc1C(=O)NCc1cccc(C(=O)Nc2nc3c(s2)CN(C)CC3)c1 [compound 76]
35 | 7.6 | 40 | N[C@H]1CCc2nc(NC(=O)c3cccc(CNC(=O)c4ccc(-c5csnn5)cc4)c3)sc2C1 [compound 26]
36 | 2 | 0.53 | CN1CCc2nc(NC(=O)c3cccc(CNC(=O)c4cccc(-c5cn[nH]c5)c4)c3)sc2C1 [compound 6]
37 | 8.1 | 46 | CN1CCc2ccc(NC(=O)c3cccc(CNC(=O)c4cc5cc(C#N)ccc5n4C)c3)cc2C1 [compound 94]
38 | 1.3 | 0.195 | CN1CCc2ccc(NC(=O)c3cccc(CNC(=O)c4ccc(-c5ccncc5)cc4)c3)cc2C1 [compound 129]
39 | 1.5 | 1 | CN1CCc2ccc(NC(=O)c3cccc(CNC(=O)c4ccc(-c5cnco5)s4)c3)cc2C1 [compound 64]
40 | 1.8 | 9.3 | Cc1c(C(=O)NCc2cccc(C(=O)Nc3nc4c(s3)CN(C)CC4)c2)nnn1-c1nonc1N [compound 44]
41 | 5.9 | 25 | CN1CCc2ccc(NC(=O)c3cccc(CNC(=O)c4cn5cc(C(N)=O)ccc5n4)c3)cc2C1 [compound 21]
42 | 1.7 | 0.85 | CN1CCc2ccc(NC(=O)c3cccc(CNC(=O)c4cc5cc(C(N)=O)ccc5[nH]4)c3)cc2C1 [compound 86]
43 | 6.6 | 34 | CN1CCc2ccc(NC(=O)c3cccc(CNC(=O)c4ccc(-c5ccn[nH]5)cc4)c3)cc2C1 [compound 179]
